Measurements published in patent publication US12570659B2, “Bicyclic heteroaryl compounds useful as IRAK4 inhibitors” (BRISTOL-MYERS SQUIBB COMPANY, priority 2019, dated 2026).

How the values were obtained:
IRAK4 = IRAK4 (Homo sapiens (Human), UniProt Q9NWZ3); experiment: IRAK4 Inhibition Assay; assay type: biochemical; conditions: ATP 500 μM; IRAK4 0.6 nM; 60 min room temperature
Procedure: IRAK4 Inhibition Assay The assays were performed in U-bottom 384-well plates. […] The reaction was initiated by the combination of IRAK4 with substrates and test compounds. The reaction mixture was incubated at room temperature for 60 min. and terminated by adding 45 μL of 35 mM EDTA to each sample. The reaction mixture was analyzed on the Caliper LABCHIP® 3000 (Caliper, Hopkinton, MA) by electrophoretic separation of the fluorescent substrate and phosphorylated product. Inhibition data were calculated by comparison to no enzyme control reactions for 100% inhibition and vehicle-only reactions for 0% inhibition.

JAK3 kinase = JAK3 kinase (Homo sapiens (Human), UniProt P52333); experiment: JAK3 Homogeneous Time Resolved Fluorescence (HTRF) Assay; assay type: binding; conditions: for IC50: competition binding with fluorescein-labeled ATP competitive probe; for Ratio of JAK3 IC50 to IRAK4 IC50: selectivity for IRAK4 over JAK3
Procedure: JAK3 Homogeneous Time Resolved Fluorescence (HTRF) Assay
A time resolved FRET-based competition binding assay was used to assess test article binding to JAK3 kinase. His-tagged or GST-tagged kinase at a concentration of 1 nM was incubated with 0.2 nM Tb-labeled detection antibody (anti-His or anti-GST), test compound, and fluorescein-labeled ATP competitive probe at a concentration corresponding to the probe's equilibrium dissociation constant for one hour. Fluorescence at 495 nm and 520 nm was measured using an EnVision microplate reader to quantify FRET between Tb-labeled detection antibody and fluorescein-labeled probe. Background subtracted FRET ratios were normalized to the maximum signal obtained in the absence of test compound. These values were converted to a percent inhibition. Percent inhibition was determined for test compounds at 11 concentrations. The IC50, defined as the concentration of the competing test compound needed to reduce specific binding of the probe by 50%, was calculated using the 4 parameter logistic equation to fit the data.

Sequence of IRAK4 (Q9NWZ3 whole entry, species assumed): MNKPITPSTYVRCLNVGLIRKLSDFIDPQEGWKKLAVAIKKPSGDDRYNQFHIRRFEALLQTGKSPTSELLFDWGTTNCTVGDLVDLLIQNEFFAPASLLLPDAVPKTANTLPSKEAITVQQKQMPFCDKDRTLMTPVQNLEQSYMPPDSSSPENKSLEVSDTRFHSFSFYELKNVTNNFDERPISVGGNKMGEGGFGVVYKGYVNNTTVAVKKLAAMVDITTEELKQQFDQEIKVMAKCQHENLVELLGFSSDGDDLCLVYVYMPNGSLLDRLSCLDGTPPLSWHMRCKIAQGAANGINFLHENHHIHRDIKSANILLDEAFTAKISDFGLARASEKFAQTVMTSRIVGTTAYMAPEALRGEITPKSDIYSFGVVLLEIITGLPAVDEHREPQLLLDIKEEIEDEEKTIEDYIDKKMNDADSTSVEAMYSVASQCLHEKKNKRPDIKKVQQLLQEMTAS
Sequence of JAK3 kinase (P52333 whole entry): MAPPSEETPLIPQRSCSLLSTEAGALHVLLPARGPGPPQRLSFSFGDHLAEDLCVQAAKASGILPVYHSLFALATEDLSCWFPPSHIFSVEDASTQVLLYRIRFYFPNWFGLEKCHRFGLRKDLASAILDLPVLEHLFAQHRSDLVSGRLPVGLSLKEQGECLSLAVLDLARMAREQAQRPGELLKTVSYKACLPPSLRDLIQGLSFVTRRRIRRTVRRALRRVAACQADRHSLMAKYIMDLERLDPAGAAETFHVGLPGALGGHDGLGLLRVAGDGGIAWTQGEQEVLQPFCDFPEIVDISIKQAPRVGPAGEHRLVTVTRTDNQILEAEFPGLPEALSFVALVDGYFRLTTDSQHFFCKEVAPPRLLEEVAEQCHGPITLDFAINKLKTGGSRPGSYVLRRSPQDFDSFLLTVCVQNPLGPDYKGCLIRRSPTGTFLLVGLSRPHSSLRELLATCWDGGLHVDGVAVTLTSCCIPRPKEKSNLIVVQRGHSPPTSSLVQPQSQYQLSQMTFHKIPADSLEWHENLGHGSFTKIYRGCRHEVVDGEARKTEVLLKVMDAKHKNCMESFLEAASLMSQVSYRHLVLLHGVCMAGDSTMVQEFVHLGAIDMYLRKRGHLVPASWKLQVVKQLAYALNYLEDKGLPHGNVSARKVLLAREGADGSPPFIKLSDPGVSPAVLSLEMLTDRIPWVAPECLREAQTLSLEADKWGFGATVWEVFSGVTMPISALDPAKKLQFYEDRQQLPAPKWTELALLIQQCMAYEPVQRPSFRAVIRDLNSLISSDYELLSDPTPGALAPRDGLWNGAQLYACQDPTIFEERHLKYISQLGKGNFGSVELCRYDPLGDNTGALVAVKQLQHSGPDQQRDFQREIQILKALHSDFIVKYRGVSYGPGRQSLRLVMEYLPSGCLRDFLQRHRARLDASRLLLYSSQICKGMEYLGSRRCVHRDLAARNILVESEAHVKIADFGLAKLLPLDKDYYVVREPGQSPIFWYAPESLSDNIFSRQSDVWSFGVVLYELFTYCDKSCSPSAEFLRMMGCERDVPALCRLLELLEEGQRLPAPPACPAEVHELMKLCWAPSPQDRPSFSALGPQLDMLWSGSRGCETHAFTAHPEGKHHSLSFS

| Structure (SMILES) | IC50 (IRAK4) | IC50 (JAK3 kinase) | Ratio of JAK3 IC50 to IRAK4 IC50 (JAK3 kinase) |
| --- | --- | --- | --- |
| CC(C)Nc1c(C(=O)NC[C@@H](F)C(C)(C)O)cnc2cc(-c3cccnc3)nn12 [Example 115, (R)—N-(2-fluoro-3-hydroxy-3-methylbutyl)-7-(isopropylamino)-2-(pyridin-3-yl) pyrazolo[1,5-a]pyrimidine-6-carboxamide] | 25 nM | > 10000 nM | >400 |
| CC(C)Nc1c(C(=O)N[C@H]2CC[C@H](O)CC2)cnn2cc(-c3cccnc3)cc12 [Example 58, N-((1r,4r)-4-hydroxycyclohexyl)-4-(isopropylamino)-6-(pyridin-3-yl)pyrrolo[1,2-b]pyridazine-3-carboxamide] | 54 nM | > 50000 nM | >926 |
| CC(C)Nc1c(C(=O)NC[C@@H](F)C(C)(C)O)cnn2cc(-n3ncc4cncnc43)cc12 [Example 37, (R)—N-(2-fluoro-3-hydroxy-3-methylbutyl)-4-(isopropylamino)-6-(1H-pyrazolo[3,4-d]pyrimidin-1-yl)pyrrolo[1,2-b]pyridazine-3-carboxamide] | 3.8 nM | > 50000 nM | >13158 |
| CC(=O)N[C@H]1CC[C@H](NC(=O)c2cnn3cc(-c4cnc(F)cc4C)cc3c2NC(C)C)CC1 [Example 75, N-((1r,4r)-4-acetamidocyclohexyl)-6-(6-fluoro-4-methylpyridin-3-yl)-4-(isopropylamino)pyrrolo[1,2-b]pyridazine-3-carboxamide] | 5.8 nM | ~22000 nM | ~3793 |
| CC(C)Nc1c(C(=O)NC[C@@H](F)C(C)(C)O)cnn2cc(-c3ccc(F)cc3)cc12 [Example 13, (R)—N-(2-fluoro-3-hydroxy-3-methylbutyl)-6-(4-fluorophenyl)-4-(isopropylamino)pyrrolo[1,2-b]pyridazine-3-carboxamide] | 29 nM | > 50000 nM | >1724 |
| COc1ccc(-c2cc3c(NC4CCOCC4)c(C(=O)NC[C@@H](F)C(C)(C)O)cnn3c2)cn1 [Example 10, (R)—N-(2-fluoro-3-hydroxy-3-methylbutyl)-6-(6-methoxypyridin-3-yl)-4-((tetrahydro-2H-pyran-4-yl)amino)pyrrolo[1,2-b]pyridazine-3-carboxamide] | 57 nM | > 10000 nM | >175 |
| CC(C)Nc1c(C(=O)NCCNS(C)(=O)=O)cnc2cc(-c3ccncc3F)nn12 [Example 161, 2-(3-fluoropyridin-4-yl)-7-(isopropylamino)-N-(2-(methylsulfonamido)ethyl) pyrazolo[1,5-a]pyrimidine-6-carboxamide] | 160 nM | > 10000 nM | >63 |
| CC(C)Nc1c(C(=O)NC[C@@H](F)C(C)(C)O)cnn2cc(-c3cccnc3)nc12 [Example 99, (R)—N-(2-fluoro-3-hydroxy-3-methylbutyl)-8-(isopropylamino)-2-(pyridin-3-yl) imidazo[1,2-b]pyridazine-7-carboxamide] | 66 nM | > 10000 nM | >152 |
| Cc1cc(F)ncc1-c1cn2ncc(C(=O)N[C@H]3C[C@H](C(C)(C)O)C3)c(NC(C)C)c2n1 [Example 113, 2-(6-fluoro-4-methylpyridin-3-yl)-N-((1r,3r)-3-(2-hydroxypropan-2-yl)cyclobutyl)-8-(isopropylamino) imidazo[1,2-b]pyridazine-7-carboxamide] | 96 nM | > 50000 nM | >521 |
| CC(=O)N[C@H]1CC[C@H](NC(=O)c2cnn3cc(-c4c(C)ccnc4F)cc3c2NC(C)C)CC1 [Example 66, N-((1r,4r)-4-acetamidocyclohexyl)-6-(2-fluoro-4-methylpyridin-3-yl)-4-(isopropylamino)pyrrolo[1,2-b]pyridazine-3-carboxamide] | 59 nM | 18000 nM | 305 |
| CC(C)Nc1c(C(=O)NC[C@@H](F)C(C)(C)O)cnc2cc(-c3ccc(=O)[nH]c3)nn12 [Example 123, (R)—N-(2-fluoro-3-hydroxy-3-methylbutyl)-7-(isopropylamino)-2-(6-oxo-1,6-dihydropyridin-3-yl)pyrazolo[1,5-a]pyrimidine-6-carboxamide] | 4.9 nM | > 50000 nM | >10204 |
| CC(C)Nc1c(C(=O)NC[C@@H](F)C(C)(C)O)cnn2cc(-c3ccc(F)cc3)nc12 [Example 104, (R)—N-(2-fluoro-3-hydroxy-3-methylbutyl)-2-(4-fluorophenyl)-8-(isopropylamino)imidazo[1,2-b]pyridazine-7-carboxamide] | 39 nM | > 10000 nM | >256 |
| CC(C)Nc1c(C(=O)N[C@H]2C[C@H](C(C)(C)O)C2)cnn2cc(-c3ccc(F)nc3)nc12 [Example 114, 2-(6-fluoropyridin-3-yl)-N-((1r,3r)-3-(2-hydroxypropan-2-yl)cyclobutyl)-8-(isopropylamino)imidazo[1,2-b]pyridazine-7-carboxamide] | 840 nM | > 50000 nM | >60 |
| CC(C)Nc1c(C(=O)NC[C@@H](F)C(C)(C)O)cnc2cc(-c3ncco3)nn12 [Example 134, (R)—N-(2-fluoro-3-hydroxy-3-methylbutyl)-7-(isopropylamino)-2-(oxazol-2-yl)pyrazolo[1,5-a]pyrimidine-6-carboxamide] | 220 nM | > 50000 nM | >227 |
| CC(C)(O)[C@H](F)CNC(=O)c1cnn2cc(-c3cccnc3)cc2c1NC1CCOCC1 [Example 6, (R)—N-(2-fluoro-3-hydroxy-3-methylbutyl)-6-(pyridin-3-yl)-4-((tetrahydro-2H-pyran-4-yl)amino) pyrrolo[1,2-b] pyridazine-3-carboxamide] | 54 nM | > 50000 nM | >926 |
| CNC(=O)c1cnc2cc(-c3ccccc3)nn2c1N[C@H](CO)Cc1ccccc1 [Example 116, (S)-7-((1-hydroxy-3-phenylpropan-2-yl)amino)-N-methyl-2-phenylpyrazolo[1,5-a]pyrimidine-6-carboxamide] | 1620 nM | – | – |
| CC(C)Nc1c(C(=O)NC[C@@H](F)C(C)(C)O)cnc2cc(-c3nccs3)nn12 [Example 158, (R)—N-(2-fluoro-3-hydroxy-3-methylbutyl)-7-(isopropylamino)-2-(thiazol-2-yl)pyrazolo[1,5-a]pyrimidine-6-carboxamide] | 20 nM | – | – |
| CNC(=O)c1cnc2cc(-c3ccc(C#N)cc3)nn2c1NC(C)C [Example 118, 2-(4-cyanophenyl)-7-(isopropylamino)-N-methylpyrazolo[1,5-a] pyrimidine-6-carboxamide] | 240 nM | – | – |
| CNC(=O)c1cnc2cc(-c3ccc4ncsc4c3)nn2c1NC(C)C [Example 121, 2-(benzo[d]thiazol-6-yl)-7-(isopropylamino)-N-methylpyrazolo[1,5-a]pyrimidine-6-carboxamide] | 590 nM | – | – |
| CNC(=O)c1cnc2cc(-c3ccncc3)nn2c1NC(C)C [Example 120, 7-(isopropylamino)-N-methyl-2-(pyridin-4-yl)pyrazolo[1,5-a]pyrimidine-6-carboxamide] | 410 nM | – | – |
| CNC(=O)c1cnc2cc(-c3ccnc(N4CCOCC4)c3)nn2c1NC(C)C [Example 119, 7-(isopropylamino)-N-methyl-2-(2-morpholinopyridin-4-yl)pyrazolo[1,5-a]pyrimidine-6-carboxamide] | 2930 nM | – | – |
| CC(C)Nc1c(C(=O)NC[C@@H](F)C(C)(C)O)cnn2cc(-c3nccs3)cc12 [Example 17, (R)—N-(2-fluoro-3-hydroxy-3-methylbutyl)-4-(isopropylamino)-6-(thiazol-2-yl)pyrrolo[1,2-b]pyridazine-3-carboxamide] | 6.3 nM | – | – |
| CNC(=O)c1cnc2cc(-c3ccccc3)nn2c1NC1CCCCC1 [Example 117, 7-(cyclohexylamino)-N-methyl-2-phenylpyrazolo[1,5-a]pyrimidine-6-carboxamide] | 5570 nM | – | – |
| CC(C)(O)[C@H](F)CNC(=O)c1cnn2cc(-c3ccccc3)cc2c1NC1CCCC1 [Example 29, (R)-4-(cyclopentylamino)-N-(2-fluoro-3-hydroxy-3-methylbutyl)-6-phenylpyrrolo[1,2-b] pyridazine-3-carboxamide] | 180 nM | – | – |
| CNC(=O)[C@H]1CC[C@H](NC(=O)c2cnn3cc(-c4ccc(C(N)=O)nc4)cc3c2NC(C)C)CC1 [Example 95, 6-(6-carbamoylpyridin-3-yl)-4-(isopropylamino)-N-((1r,4r)-4-(methylcarbamoyl)cyclohexyl)pyrrolo[1,2-b]pyridazine-3-carboxamide] | 35 nM | – | – |
| CNC(=O)[C@H]1CC[C@H](NC(=O)c2cnn3cc(-c4ccc(C#N)nc4)cc3c2NC(C)C)CC1 [Example 94, 6-(6-cyanopyridin-3-yl)-4-(isopropylamino)-N-((1r,4r)-4-(methylcarbamoyl)cyclohexyl) pyrrolo[1,2-b]pyridazine-3-carboxamide] | 14 nM | – | – |
